# According to ChEMBL document CHEMBL1817597, “Antifungal thiopeptide cyclothiazomycin B1 exhibits growth inhibition accompanying morphological changes via binding to fungal cell wall chitin” (Bioorg Med Chem, 2011):
# Activity calls are given as the source filed them. The calls are words filed in the database; no cut-off is given here.
# What was measured:
# [1] = system: Staphylococcus aureus; experiment: Antimicrobial activity against Staphylococcus aureus NCTC 8530 after 24 hrs by broth microdilution method; assay type: functional, organism-based
# [2] = system: Bacillus subtilis; experiment: Antimicrobial activity against Bacillus subtilis IFO 3007 after 24 hrs by broth microdilution method; assay type: functional, organism-based
# [3] = system: Saccharomyces cerevisiae; experiment: Antimicrobial activity against Saccharomyces cerevisiae ATCC 7754 after 24 hrs by broth microdilution method; assay type: functional, organism-based
# [4] = system: Mucor mucedo; experiment: Antimicrobial activity against Mucor mucedo IFO 7684 after 24 hrs by broth microdilution method; assay type: functional; settings: IFO 7684, 24 h
# [5] = system: Mucor javanicus; experiment: Antimicrobial activity against Mucor javanicus IFO 4569 after 24 hrs by broth microdilution method; assay type: functional; settings: IFO 4569, 24 h
# [6] = system: Fusarium oxysporum; experiment: Antimicrobial activity against Fusarium oxysporum NBRC 5942 after 24 hrs by broth microdilution method; assay type: functional; settings: NBRC 5942, 24 h
# [7] = system: Fusarium oxysporum; experiment: Antimicrobial activity against Fusarium oxysporum IFO 7152 after 24 hrs by broth microdilution method; assay type: functional; settings: IFO 7152, 24 h
# [8] = system: Fusarium oxysporum; experiment: Antimicrobial activity against Fusarium oxysporum NBRC 30700 after 24 hrs by broth microdilution method; assay type: functional; settings: NBRC 30700, 24 h
# [9] = system: Fusarium sporotrichioides; experiment: Antimicrobial activity against Fusarium sporotrichioides NBRC 33236 after 24 hrs by broth microdilution method; assay type: functional; settings: NBRC 33236, 24 h
# [10] = system: Fusarium avenaceum; experiment: Antimicrobial activity against Fusarium avenaceum NBRC 33237 after 24 hrs by broth microdilution method; assay type: functional; settings: NBRC 33237, 24 h
# [11] = system: Fusarium fujikuroi; experiment: Antimicrobial activity against Gibberella fujikuroi NBRC 6349 after 24 hrs by broth microdilution method; assay type: functional; settings: NBRC 6349, 24 h
# [12] = system: Aspergillus fumigatus; experiment: Antimicrobial activity against Aspergillus fumigatus IFO 5840 after 24 hrs by broth microdilution method; assay type: functional; settings: IFO 5840, 24 h
# [13] = system: Aspergillus nidulans; experiment: Antimicrobial activity against Aspergillus nidulans FGSC A4 after 24 hrs by broth microdilution method; assay type: functional; settings: FGSC A4, 24 h
# [14] = system: Neurospora sitophila; experiment: Antimicrobial activity against Neurospora sitophila DSM 1130 after 24 hrs by broth microdilution method; assay type: functional; settings: DSM 1130, 24 h
# [15] = system: Rhizopus arrhizus; experiment: Antimicrobial activity against Rhizopus oryzae IFO 4766 after 24 hrs by broth microdilution method; assay type: functional; settings: IFO 4766, 24 h
# [16] = system: Mucor mucedo; experiment: Antimicrobial activity against Mucor mucedo IFO 7684 at <6.55 uM after 24 hrs by broth microdilution method; assay type: functional, organism-based
# [17] = system: Fusarium oxysporum; experiment: Antimicrobial activity against Fusarium oxysporum NBRC 5942 at <6.55 uM after 24 hrs by broth microdilution method; assay type: functional, organism-based
# [18] = system: Fusarium oxysporum; experiment: Antimicrobial activity against Fusarium oxysporum IFO 7152 at <6.55 uM after 24 hrs by broth microdilution method; assay type: functional, organism-based
# [19] = system: Fusarium oxysporum; experiment: Antimicrobial activity against Fusarium oxysporum NBRC 30700 at <6.55 uM after 24 hrs by broth microdilution method; assay type: functional, organism-based
# [20] = system: Fusarium solani; experiment: Antimicrobial activity against Fusarium solani NBRC 8505 at <6.55 uM after 24 hrs by broth microdilution method; assay type: functional, organism-based
# [21] = system: Fusarium avenaceum; experiment: Antimicrobial activity against Fusarium avenaceum NBRC 33237 at <6.55 uM after 24 hrs by broth microdilution method; assay type: functional, organism-based
# [22] = system: Penicillium chrysogenum; experiment: Antimicrobial activity against Penicillium chrysogenum IFO 4626 at <6.55 uM after 24 hrs by broth microdilution method; assay type: functional, organism-based
# [23] = system: Neurospora sitophila; experiment: Antimicrobial activity against Neurospora sitophila DSM 1130 at <6.55 uM after 24 hrs by broth microdilution method; assay type: functional
# [24] = system: Mucor mucedo; experiment: Induction of morphological changes in Mucor mucedo IFO 7684 assessed as swelling of hyphae at tips at MIC after 24 hrs by microscopic analysis; assay type: functional, organism-based
# [25] = system: THP-1; experiment: Cytotoxicity against human THP1 cells up to 65.5 uM after 24 hrs by Alamar blue assay; assay type: cell-based; settings: thp-1, 24 h
# [26] = system: LLC-PK1; experiment: Cytotoxicity against pig LLC-PK1 cells up to 65.5 uM after 24 hrs by Alamar blue assay; assay type: cell-based, Sus scrofa; settings: llc-pk1, 24 h
# [27] = system: Mucor mucedo; experiment: Inhibition of total protein synthesis in Mucor mucedo IFO 7684 assessed as [U-14C]-leucine uptake into acid-insoluble fractions at 0.13 uM after 25 mins by liquid scintillation counting relative to control; assay type: functional; settings: IFO 7684, 25 min
# [28] = system: Mucor mucedo; experiment: Inhibition of chitin synthase in germinated Mucor mucedo IFO 7684 assessed as incorporation of GlcNAc from [14C]-UDP-GlcNAc into acid-insoluble fractions at 2.61 uM after 60 mins by liquid scintillation counting relative to control
# [29] = Binding affinity to curdlan at 6.55 uM after 30 mins by HPLC analysis
# [30] = system: Mucor mucedo; experiment: Induction of morphological changes in Mucor mucedo IFO 7684 assessed as thickening of hyphae at 0.026 uM after 24 hrs by microscopic analysis in presence of 100 uM of PKA inhibitor H8; assay type: functional, organism-based
# [31] = system: Mucor mucedo; experiment: Effect on cell wall re-generation in Mucor mucedo IFO 7684 spheroplasts at 0.026 uM after 12 hrs by microscopic analysis; assay type: functional
compound,measurement,setting,value
C=C1NC(=O)[C@H]2CSC(=N2)c2csc(n2)-c2ccc3c(n2)[C@H](C)NC(=O)[C@@H]2CCCN2C(=O)/C(=C/C)NC(=O)CNC(=O)[C@H](CCCNC(=N)N)NC(=O)C(C)(NC(=O)/C(=C/C)NC(=O)C2CSC(=N2)[C@H](CC(N)=O)NC3=O)SC[C@@H](C(=O)O)NC(=O)[C@H]2CSC(=N2)c2csc(n2)-c2csc1n2 [CYCLOTHIAZOMYCIN B1],Activity,[1],inactive
same,Activity,[2],inactive
same,Activity,[3],inactive
same,MIC,[4],0.039 µg/mL
same,MIC,[5],0.078 µg/mL
same,MIC,[6],0.5 µg/mL
same,MIC,[7],0.25 µg/mL
same,MIC,[8],0.25 µg/mL
same,MIC,[9],0.031 µg/mL
same,MIC,[10],0.25 µg/mL
same,MIC,[11],0.25 µg/mL
same,MIC,[12],> 1000 µg/mL
same,MIC,[13],> 1000 µg/mL
same,MIC,[14],> 1000 µg/mL
same,MIC,[15],> 1000 µg/mL
same,Activity,[16],inactive
same,Activity,[17],inactive
same,Activity,[18],inactive
same,Activity,[19],inactive
same,Activity,[20],inactive
same,Activity,[21],inactive
same,Activity,[22],inactive
same,Activity,[23],inactive
same,Activity,[24],Active
same,Activity,[25],Non-toxic
same,Activity,[26],Non-toxic
same,inhibition at 0.13 µM,[27],37%
same,inhibition,[28],64%
same,Activity,[29],inactive
same,Activity,[30],Active
same,Activity,[31],Active
